Experiments:
[1] = Metabolic stability in mouse liver microsomes assessed as half life; format: ADME, Microsome
[2] = Antiproliferative activity against human Triple-negative breast cancer cell; format: functional, cell-based; settings: Breast carcinoma cell
A549 [3] = experiment: Anticancer activity against human A549 cells assessed as reduction in cell growth incubated for 72 hrs by CCK-8 assay; format: functional, cell-based; settings: A549, 72 h
[4] = Terminal half life in Sprague-Dawley rat at 2 mg/kg, iv by LC-MS/MS analysis; format: ADME, organism-based; settings: in vivo
A549 [5] = experiment: Antitumor activity against human A549 cells xenografted in BALB/c nude mouse assessed as tumor growth inhibition at 30 mg/kg, ip administered twice daily for 21 days relative to control; format: functional; settings: A549, 504 h, time 21 day, read-out: TGI
A549 [6] = experiment: Induction of apoptosis in human A549 cells assessed as apoptotic rate at 5 uM incubated for 24 hrs by Annexin V-FITC staining based flow cytometry relative to control; format: functional
[7] = molecular target: E3 ubiquitin-protein ligase Mdm2 (Homo sapiens, UniProt Q00987); experiment: Homo-PROTAC activity at MDM2 in human A549 cells assessed as self ubiquitination mediated protein degradation by Western Blot analysis; format: cell-based
E3 ubiquitin-protein ligase Mdm2, sequence (Q00987 whole entry): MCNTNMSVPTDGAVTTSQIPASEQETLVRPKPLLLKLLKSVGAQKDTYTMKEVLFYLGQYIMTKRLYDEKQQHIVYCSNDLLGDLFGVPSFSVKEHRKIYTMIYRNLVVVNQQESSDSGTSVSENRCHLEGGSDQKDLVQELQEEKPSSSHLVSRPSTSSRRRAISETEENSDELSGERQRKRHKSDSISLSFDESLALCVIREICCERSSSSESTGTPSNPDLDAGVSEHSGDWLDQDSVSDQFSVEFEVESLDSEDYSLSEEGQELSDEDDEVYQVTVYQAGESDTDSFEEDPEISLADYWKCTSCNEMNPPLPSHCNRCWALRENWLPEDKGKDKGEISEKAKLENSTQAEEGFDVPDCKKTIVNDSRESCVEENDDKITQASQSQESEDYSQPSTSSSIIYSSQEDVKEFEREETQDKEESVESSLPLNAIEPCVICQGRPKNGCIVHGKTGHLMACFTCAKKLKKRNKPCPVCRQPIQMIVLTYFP

MOLM-13 = experiment: Antiproliferative activity against human MOLM-13 assessed as reduction in cell viability; format: functional, cell-based
[8] = Antiproliferative activity against human derived Acute myeloid leukemic cells assessed as reduction in cell viability incubated for 48 hr by CellTiter-Glo assay; format: functional, cell-based; settings: Leukemia cell

CCOc1cc(C(C)(C)C)ccc1C1=N[C@@](C)(c2ccc(Cl)cc2)[C@@](C)(c2ccc(Cl)cc2)N1C(=O)N1CCN(CC(=O)NCCOCCOCCOCC(=O)N[C@H](C(=O)N2C[C@H](O)C[C@H]2C(=O)NCc2ccc(-c3scnc3C)cc2)C(C)(C)C)CC1
half-life [1]: 25.9 min | IC50 [2]: 4 µM

CCOc1cc(C(C)(C)C)ccc1C1=N[C@@H](c2ccc(Cl)cc2)[C@@H](c2ccc(Cl)cc2)N1C(=O)N1CCN(CC(=O)NCCOCCOCCOCCNC(=O)CN2CCN(C(=O)N3C(c4ccc(C(C)(C)C)cc4OCC)=N[C@@H](c4ccc(Cl)cc4)[C@H]3c3ccc(Cl)cc3)CC2=O)C(=O)C1
IC50 (A549 [3]): 580 nM | beta t1/2 [4]: 9.6 h | inhibition in vivo at 30 mg/kg (A549 [5]): 52.4%

C[C@H]1[C@H](C)CC[C@]2(C(=O)NCCOCCOCCOCCNc3cccc4c3C(=O)N(C3CCC(=O)NC3=O)C4=O)CC[C@]3(C)C(=CC[C@@H]4[C@@]5(C)CC[C@H](O)C(C)(C)[C@@H]5CC[C@]43C)[C@H]12 (some centres undefined)
Activity (A549 [6]): 26.74%

CCOc1cc(C(C)(C)C)ccc1C1=NC(c2ccc(Cl)cc2)C(c2ccc(Cl)cc2)N1C(=O)N1CCN(CC(=O)NCCOCCOCCOCCNC(=O)CN2CCN(C(=O)N3C(c4ccc(C(C)(C)C)cc4OCC)=NC(c4ccc(Cl)cc4)C3c3ccc(Cl)cc3)CC2=O)C(=O)C1 (racemic)
DC50 [7]: 1010 nM

Cc1ncsc1-c1ccc(CNC(=O)[C@@H]2C[C@@H](O)CN2C(=O)[C@@H](NC(=O)CCCCCCCCC(=O)N2CCN(S(=O)(=O)C[C@@H](N3C(=O)[C@@](C)(CC(=O)O)C[C@H](c4cccc(Cl)c4)[C@H]3c3ccc(Cl)cc3)C(C)(C)C)CC2)C(C)(C)C)cc1
IC50 (MOLM-13): 50 nM | IC50 [8]: 40 nM

Reference: ChEMBL document CHEMBL5608168, “An overview of PROTACs targeting MDM2 as a novel approach for cancer therapy” (Eur J Med Chem, 2024)
